# In ChEMBL document CHEMBL3886609, “Piperidylpyrimidine derivatives as modulators of protein kinase inhibitors and of vascular endothelial growth factor receptor 2” (2016):
# Biological target: Vascular endothelial growth factor receptor 2 (Homo sapiens, UniProt P35968)
# Assay: VEGFR2 Kinase Assay: Biochemical KDR kinase assays were performed in 96 well microtiter plates that were coated overnight with 75 ug/well of poly-Glu-Tyr (4:1) in 10 mM Phosphate Buffered Saline (PBS), pH 7.4. The coated plates were washed with 2 mls per well PBS+0.05% Tween-20 (PBS-T), blocked by incubation with PBS containing 1% BSA, then washed with 2 mls per well PBS-T prior to starting the reaction. Reactions were carried out in 100 uL reaction volumes containing 2.7 uM ATP in kinase buffer (50 mM Hepes buffer pH 7.4, 20 mM MgCl2, 0.1 mM MnCl2 and 0.2 mM Na3VO4). Test compounds were reconstituted in 100% DMSO and added to the reaction to give a final DMSO concentration of 5%. Reactions were initiated by the addition 20 ul per well of kinase buffer containing 200-300 ng purified cytoplasmic domain KDR protein (BPS Bioscience, San Diego, Calif.). Following a 15 minute incubation at 30° C., the reactions were washed 2 mls per well PBS-T. 100 ul of a monoclonal anti-phosphotyrosine antibody-peroxidase conjugate diluted 1:10,000 in PBS-T was added to the wells for 30 minutes. Following a 2 mls per well wash with PBS-Tween-20, 100 ul of 0-Phenylenediamine Dihydrochloride in phosphate-citrate buffer, containing urea hydrogen peroxide, was added to the wells for 7-10 minutes as a colorimetric substrate for the peroxidase. […]
# Sequence of Vascular endothelial growth factor receptor 2 (P35968 whole entry, the tested form may be a part): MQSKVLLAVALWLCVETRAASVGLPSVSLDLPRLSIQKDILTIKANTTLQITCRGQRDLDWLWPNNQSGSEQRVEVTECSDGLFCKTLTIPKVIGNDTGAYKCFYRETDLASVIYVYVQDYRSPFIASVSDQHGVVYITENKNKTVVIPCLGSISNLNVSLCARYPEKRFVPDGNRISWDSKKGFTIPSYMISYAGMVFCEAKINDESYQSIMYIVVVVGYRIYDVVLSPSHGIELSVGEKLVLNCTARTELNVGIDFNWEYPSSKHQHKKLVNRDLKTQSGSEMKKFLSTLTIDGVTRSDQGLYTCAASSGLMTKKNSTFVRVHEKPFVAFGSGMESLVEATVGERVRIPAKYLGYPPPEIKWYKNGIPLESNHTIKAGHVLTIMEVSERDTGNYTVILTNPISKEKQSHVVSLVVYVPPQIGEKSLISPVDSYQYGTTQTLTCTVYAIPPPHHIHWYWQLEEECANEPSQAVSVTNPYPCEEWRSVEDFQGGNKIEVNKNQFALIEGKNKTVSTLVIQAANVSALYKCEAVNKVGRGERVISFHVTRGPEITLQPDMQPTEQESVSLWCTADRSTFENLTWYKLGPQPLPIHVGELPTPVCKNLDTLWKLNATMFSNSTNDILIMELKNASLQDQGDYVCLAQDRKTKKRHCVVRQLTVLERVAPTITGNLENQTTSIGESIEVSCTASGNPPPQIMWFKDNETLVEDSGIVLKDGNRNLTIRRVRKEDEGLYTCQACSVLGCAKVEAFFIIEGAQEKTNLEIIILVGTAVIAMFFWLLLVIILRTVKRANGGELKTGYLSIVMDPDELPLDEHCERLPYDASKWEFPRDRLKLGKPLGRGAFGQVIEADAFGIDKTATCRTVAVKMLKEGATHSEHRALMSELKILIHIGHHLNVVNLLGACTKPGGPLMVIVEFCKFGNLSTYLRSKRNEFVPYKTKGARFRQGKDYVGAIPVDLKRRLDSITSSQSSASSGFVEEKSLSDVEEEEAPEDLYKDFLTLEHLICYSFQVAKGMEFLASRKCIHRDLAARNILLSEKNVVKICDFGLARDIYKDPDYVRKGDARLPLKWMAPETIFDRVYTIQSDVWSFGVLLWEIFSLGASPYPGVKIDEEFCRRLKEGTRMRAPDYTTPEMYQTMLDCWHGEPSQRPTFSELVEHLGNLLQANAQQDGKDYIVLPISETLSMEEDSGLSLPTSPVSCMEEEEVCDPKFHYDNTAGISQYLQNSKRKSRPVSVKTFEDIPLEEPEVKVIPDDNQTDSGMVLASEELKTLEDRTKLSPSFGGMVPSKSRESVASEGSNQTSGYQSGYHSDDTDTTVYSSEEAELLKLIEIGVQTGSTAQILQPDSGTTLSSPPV
smiles,measurement,value
O=C(c1cccnc1)N1CCc2nc(Nc3ccsc3)ncc2C1,IC50,11 nM
